Test results from patent publication US10292962B2, “Pharmaceutical combination comprising metformin and dihydroquercetin and its use for the treatment of cancer” (RESEARCH INSTITUTE FOR NUTRITION AND AGING CO., LTD., priority 2013, dated 2019).

Tests used:
[1] = test system: AsPC-1 cells; test: Proportion of CD44 and CD24 double positive cells (cancer stem cell surface markers) in AsPC-1 by flow cytometry (Example 12); type: cell-based, human; settings: 72 hr, dihydroquercetin 0.3 mmol/L, metformin 15 mmol/L + dihydroquercetin 0.3 mmol/L, or gemcitabine 100 nmol/L, compared with the control group (FIG. 7)
Method: Each group (N=10) was treated as follows: • (1) Control (vehicle control) group: 1.5% distilled water, 0.3% ethanol and 0.1% DMSO containing medium • (2) Metformin single-treated group: metformin 15 mmol/L • (3) Dihydroquercetin single-treated group: dihydroquercetin 0.3 mmol/L • (4) Metformin-dihydroquercetin combined-treated group: metformin 15 mmol/L+dihydroquercetin 0.3 mmol/L • (5) Gemcitabine single-treated group: gemcitabine 100 nmol/L • (6) Metformin.dihydroquercetin.gemcitabine combined-treated group: metformin 15 mmol/L+dihydroquercetin 0.3 mmol/L+gemcitabine 100 nmol/L
The passage-cultured AsPC-1 cells were dissociated with trypsin, and suspended in fresh medium. The cell density of the cell suspension was determined using a hematocytometer and adjusted to 2×10^4 cells/mL. The cells were seeded on 6-well multiwell culture plate (IWAKI) at 3 mL per well, and cultured overnight under the conditions of 37° C., 5% CO2. […] After washing with FACS (fluorescence activated cell sorting) buffer, the cells were stained with FITC-labeled anti-human CD44 antibody and APC-labeled anti-human CD24 antibody, and treated at 4° C. for 30 min. Thereafter, the cells were washed with the FACS buffer, passed through a 40 micron mesh filter, and the proportion of CD44 and CD24 double positive cells was determined using the flow cytometer (Nippon Becton Dickinson and Company, Ltd.). […]

[2] = test system: phospho-4E-BP1 (Thr37/Thr46) protein; test: Relative phospho-4E-BP1 protein amount (ELISA) in human bile duct cancer cell line HuH-28 (Example 7); type: cell-based; settings: metformin 20 mmol/L, dihydroquercetin 0.2 mmol/L, single or combined, 6 hr, control 58.8
Method: On the following day after cell seeding, test substances were added and the cells were cultured for 6 hr before harvesting them. The amounts of relative phospho-4E-BP1 protein contained in the prepared whole cell lysates were measured and evaluated. Each group (N=3) was treated as follows: • (1) Control (vehicle control) group: 1% ethanol containing medium • (2) Metformin single-treated group: metformin 20 mmol/L • (3) dihydroquercetin single-treated group: dihydroquercetin 0.2 mmol/L • (4) combined-treated group: metformin 20 mmol/L+dihydroquercetin 0.2 mmol/L
The passage-cultured HuH-28 cells were dissociated with trypsin, and suspended in the medium. The cell density of the cell suspension was determined using a hematocytometer and adjusted to 2.5×10^5 cells/mL. The cells were seeded on 12-well multiwell culture plate at 1 mL per well, and cultured overnight under the conditions of 37° C., 5% CO2. […] Upon centrifugation, the supernatants were sampled, and the amounts of relative phospho-4E-BP1 (Thr37/Thr46) protein in the samples were quantified using ELISA kits in the same manner as in Example 1. The total protein concentrations in the whole cell lysates were measured using BCA protein assay, and the relative phospho-4E-BP1 protein amount of each well was normalized with the total protein amount. […]

[3] = test system: phospho-4E-BP1 (Thr37/Thr46) protein; test: Relative phospho-4E-BP1 protein amount (ELISA) in human breast cancer cell line MDA-MB-231 (Example 5); type: cell-based; settings: metformin 5 mmol/L, dihydroquercetin 0.2 mmol/L, single or combined, 6 hr, control 33.3
Method: (§1) On the following day after cell seeding, test substances were added and the cells were cultured for 6 hr before harvesting them. The amounts of relative phospho-4E-BP1 protein contained in the prepared whole cell lysates were measured and evaluated. Each group (N=3) was treated as follows: • (1) Control (vehicle control) group: 1% ethanol containing medium • (2) Metformin single-treated group: metformin 5 mmol/L • (3) Dihydroquercetin single-treated group: dihydroquercetin 0.2 mmol/L • (4) Combined-treated group: metformin 5 mmol/L+dihydroquercetin 0.2 mmol/L
The passage-cultured MDA-MB-231 cells were dissociated with trypsin, and suspended in fresh medium. The cell density of the cell suspension was determined using a hematocytometor and adjusted to 2.5×10^5 cells/mL. The cells were seeded on 12-well multiwell culture plate at 1 mL per well, and cultured overnight under the conditions of 37° C., 5% CO2. […] Upon centrifugation, the supernatants were sampled, and the amounts of relative phospho-4E-BP1 (Thr37/Thr46) protein in the samples were quantified using ELISA kits in the same manner as in Example 1. The concentrations of total protein in the whole cell lysates were measured using BOA protein assay, and the relative phospho-4E-BP1 protein amount of each well was normalized with the total protein amount. […]

[4] = test system: phospho-4E-BP1 (Thr37/Thr46) protein; test: Relative phospho-4E-BP1 protein amount (ELISA) in human pancreatic cancer cell line AsPC-1, 24 hr (Example 9); type: cell-based; settings: single or combined
Method: Each group (N=3) was treated as follows. • (1) Control (vehicle control) group: 1% ethanol containing medium • (2) Metformin single-treated group: metformin 1.5, 3 and 6 mmol/L • (3) Dihydroquercetin-single treated group: dihydroquercetin 0.3 mmol/L • (4) Combined-treated group: metformin 1.5, 3 and 6 mmol/L+dihydroquercetin 0.3 mmol/L
The passage-cultured AsPC-1 cells were dissociated with trypsin, and suspended in fresh medium. The cell density of the cell suspension was determined using a hematocytometer and adjusted to 2.5×10^5 cells/mL. The cells were seeded on 12-well multiwell culture plate at 1 mL per well, and cultured overnight under the conditions of 37° C., 5% CO2. On the following day, medium containing metformin or dihydroquercetin or both metformin and dihydroquercetin, at the given concentration, was added into each well. After incubation under the conditions of 37° C., 5% CO2 for 24 hr, the cells in each well were washed twice with D-PBS, and whole cell lysates were prepared using cell lysis buffer. Upon centrifugation, the supernatants were sampled, and the amounts of relative phospho-4E-BP1 (Thr37/Thr46) protein in the samples were quantified using ELISA kits in the same manner as in Example 1. The concentrations of total protein in the whole cell lysates were measured using BCA protein assay, and the relative phospho-4E-BP1 protein amount of each well was normalized with the total protein amount.
To evaluate the influence of the combined use on relative phospho-4E-BP1 protein amount, Dunnett test was performed to compare the combined-treated group with each single agent-treated group. […] The differences were considered statistically significant when the p value was less than 0.05.

[5] = test system: phospho-4E-BP1 (Thr37/Thr46) protein; test: Relative phospho-4E-BP1 protein amount (ELISA) in human prostate cancer cell line 22Rv1 (Example 6); type: cell-based; settings: metformin 10 mmol/L, dihydroquercetin 0.2 mmol/L, single or combined, 6 hr, control 51.0
Method: On the following day after cell seeding, test substances were added and the cells were cultured for 6 hr before harvesting them. The amounts of relative phospho-4E-BP1 protein contained in the prepared whole cell lysates were measured and evaluated. Each group (N=3) was treated as follows: • (1) Control (vehicle control) group: 1% ethanol containing medium • (2) Metformin single-treated group: metformin 10 mmol/L • (3) Dihydroquercetin single-treated group: dihydroquercetin 0.2 mmol/L • (4) Combined-treated group: metformin 10 mmol/L+dihydroquercetin 0.2 mmol/L
The passage-cultured 22Rv1 cells were dissociated with trypsin, and suspended in fresh medium. The cell density of the cell suspension was determined using a hematocytometer and adjusted to 2.5×10^5 cells/mL. The cells were seeded on 12-well multiwell culture plate at 1 mL per well, and cultured overnight under the conditions of 37° C., 5% CO2. […] Upon centrifugation, the supernatants were sampled, and the amounts of relative phospho-4E-BP1 (Thr37/Thr46) protein in the samples were quantified using ELISA kits in the same manner as in Example 1. The concentrations of total protein in the whole cell lysates were measured using BCA protein assay, and the relative phospho-4E-BP1 protein amount of each well was normalized with the total protein amount. […]

[6] = test system: phospho-4E-BP1 (Thr37/Thr46) protein; test: Relative phospho-4E-BP1 protein amount (ELISA) in human ovarian cancer cell line Caov-3 (Example 8); type: cell-based; settings: metformin 20 mmol/L, dihydroquercetin 0.2 mmol/L, single or combined, 6 hr, control 21.6
Method: On the following day after cell seeding, test substances were added and the cells were cultured for 6 hr before harvesting them. The amounts of relative phospho-4E-BP1 protein contained in the prepared whole cell lysates were measured and evaluated. Each group (N=3) was treated as follows: • (1) Control (vehicle control) group: 1% ethanol containing medium • (2) Metformin single-treated group: metformin 20 mmol/L • (3) Dihydroquercetin single-treated group: dihydroquercetin 0.2 mmol/L • (4) Combined-treated group: metformin 20 mmol/L+dihydroquercetin 0.2 mmol/L
The passage-cultured Caov-3 cells were dissociated with trypsin, and suspended in fresh medium. The cell density of the cell suspension was determined using a hematocytometer and adjusted to 2.5×10^5 cells/mL. The cells were seeded on 12-well multiwell culture plate at 1 mL per well, and cultured overnight under the conditions of 37° C., 5% CO2. […] Upon centrifugation, the supernatants were sampled, and the amounts of relative phospho-4E-BP1 (Thr37/Thr46) protein in the samples were quantified using ELISA kits in the same manner as in Example 1. The total protein concentrations in the whole cell lysates were measured using BCA protein assay, and the relative phospho-4E-BP1 protein amount of each well was normalized with the total protein amount. […]

[7] = test system: phospho-4E-BP1 (Thr37/Thr46) protein; test: Relative phospho-4E-BP1 protein amount (ELISA) in human liver cancer cell line HuH-7 (Example 4); type: cell-based; settings: metformin 5 mmol/L, dihydroquercetin 0.2 mmol/L, single or combined, 6 hr, control 84.1
Method: as §1
The passage-cultured HuH-7 cells were dissociated with trypsin, and suspended in fresh medium. The cell density of the cell suspension was determined using a hematocytometer and adjusted to 2.5×10^5 cells/mL. The cells were seeded on 12-well multiwell culture plate at 1 mL per well, and cultured overnight under the conditions of 37° C., 5% CO2. […] Upon centrifugation, the supernatants were sampled, and the amounts of relative phospho-4E-BP1 (Thr37/Thr46) protein in the samples were quantified using ELISA kits in the same manner as in Example 1. The concentrations of the total protein in the whole cell lysates were measured using BCA protein assay, and the relative phospho-4E-BP1 protein amount of each well was normalized with the total protein amount. […]

[8] = test system: WI-38 cells; test: Lactate production in human lung fibroblast cell line WI-38, racemate and optically-active dihydroquercetin (Example 10); settings: for Metformin-induced lactate production: dihydroquercetin 1 mmol/L added 1 hr before metformin 20 mmol/L, 6 hr (FIG. 4, FIG. 5); for Lactate production: dihydroquercetin 1 mmol/L single, compared with the control group (FIG. 4, FIG. 5)
Method: On the following day after cell seeding, dihydroquercetin was added and the cells were cultured for 1 hr. Then, metformin was added and the cells were cultured for 6 hr. The conditioned medium was sampled, and the concentration of the lactate contained in the medium was measured and evaluated. Each group (N=3) was treated as follows: • (1) Control (vehicle control) group: 1% ethanol containing medium • (2) Dihydroquercetin single-treated group: dihydroquercetin 1 mmol/L • (3) Metformin single-treated group: metformin 20 mmol/L • (4) Combined-treated group: metformin 20 mmol/L+dihydroquercetin 1 mmol/L
The passage-cultured WI-38 cells were dissociated with trypsin, and suspended in fresh medium. The cell density of the cell suspension was determined using a hematocytometer and adjusted to 2.5×10^5 cells/mL. The cells were seeded on 24-well multiwell culture plate (IWAKI) at 0.5 mL per well, and cultured overnight under the conditions of 37° C., 5% CO2. Thereto was added a medium containing a given concentration of dihydroquercetin and the cells were cultured for 1 hr, a medium containing a given concentration of metformin was added and the cells were further cultured for 6 hr. After culture, the culture supernatant from each well was sampled and passed through a filter for molecular weight cut-off 10 kDa to obtain the filtrate. Using the Lactate Assay Kit II (BioVision) catalog no. K627-100, lactate concentration was measured. The cells after sampling of the culture supernatant were washed twice with D-PBS, and cell lysis buffer was added to prepare whole cell lysates. The concentrations of the protein in the whole cell lysates were measured using BCA protein assay, and the lactate concentration of each well was normalized with the protein concentration.
To evaluate the influence of dihydroquercetin on the metformin-induced produced lactate content, the Student's t-test was performed for the concentration of lactate in the medium between the control group and the dihydroquercetin single agent treated group, and between the control group and the metformin single agent treated group. In addition, to evaluate an influence of the combination of dihydroquercetin and metformin for normalized produced lactate content, a two-way ANOVA (two-tailed) (factors: group and concentration) was performed between the dihydroquercetin single agent treated group (groups 1 and 2) and the metformin treated group (groups 3 and 4). […] The analysis was performed using SAS software Release 9.3 (SAS Institute Japan). The differences were considered statistically significant when the p value was less than 0.05.

[9] = test system: phospho-4E-BP1 (Thr37/Thr46) protein; test: Relative phospho-4E-BP1 protein amount (ELISA) in AsPC-1, dihydroquercetin single agent (Example 11); type: cell-based, human
Method: To evaluate the dose dependency of dihydroquercetin on the relative phospho-4E-BP1 protein amount, the linear regression analysis was performed. As a result, dose dependency was observed. Then, the Williams' test (one-tailed) was performed between the control group and the single agent treated group. As a result, a significant suppressive action of dihydroquercetin at not less than 0.5 mmol/L on relative phospho-4E-BP1 protein amount was observed.

[10] = test system: WI-38 cells; test: Metformin-induced lactate production in human lung fibroblast cell line WI-38 (Example 3); type: cell-based; settings: dihydroquercetin 1 mmol/L added 1 hr before metformin 20 mmol/L, 6 hr, vs metformin single (FIG. 3)
Method: After the culture, the conditioned medium was sampled, and the concentration of lactate contained in the medium was measured and evaluated.
Medium containing the given concentration of dihydroquercetin was added to each well and the cells were cultured for 1 hr. […] Using the Lactate Assay Kit II (BioVision) catalog no. K627-100, lactate concentration was measured.

[11] = metformin:dihydroquercetin = 1.5 mmol/L:0.3 mmol/L, control 107.3
[12] = metformin:dihydroquercetin = 3 mmol/L:0.3 mmol/L, control 33.5
[13] = metformin:dihydroquercetin = 6 mmol/L:0.3 mmol/L, control 107.3

Compound	Proportion of CD44 and CD24 double positive cells [1]	Relative phospho-4E-BP1 protein amount MEAN [2]	Relative phospho-4E-BP1 protein amount MEAN [3]	Relative phospho-4E-BP1 protein amount MEAN [4, 11]	Relative phospho-4E-BP1 protein amount MEAN [4, 12]	Relative phospho-4E-BP1 protein amount MEAN [4, 13]	Relative phospho-4E-BP1 protein amount MEAN [5]	Relative phospho-4E-BP1 protein amount MEAN [6]	Relative phospho-4E-BP1 protein amount MEAN [7]	Metformin-induced lactate production [8]	Lactate production [8]	Concentration of dihydroquercetin with significant suppressive action on relative phospho-4E-BP1 protein amount ([9]; 6 hr, Williams' test vs control group)	Relative phospho-4E-BP1 protein amount ([9]; dihydroquercetin 0.5 and 1 mmol/L single agent, 6 hr (FIG. 6))	Lactate production induced by metformin [10]
Nc1ccn([C@@H]2O[C@H](CO)[C@@H](O)C2(F)F)c(=O)n1 [Gemcitabine, gemcitabine, reference compound]	significantly increased	–	–	–	–	–	–	–	–	–	–	–	–	–
CN(C)C(=N)N=C(N)N [Metformin, metformin]	–	55.2	37.1	83.1	36.9	83.1	57.3	22.0	61.7	–	–	–	–	–
O=C1c2c(O)cc(O)cc2O[C@H](c2ccc(O)c(O)c2)[C@H]1O [optically-active dihydroquercetin, (2R,3R)-dihydroquercetin]	–	–	–	–	–	–	–	–	–	significantly suppressed	suppressed lactate production	–	–	–
O=C1c2c(O)cc(O)cc2OC(c2ccc(O)c(O)c2)C1O (racemic) [Dihydroquercetin, dihydroquercetin]	significantly decreased	54.2	25.9	97.4	37.2	89.7	53.1	21.0	59.7	significantly suppressed	suppressed lactate production	not less than 0.5 mmol/L	dose-dependent suppressive effect	significantly suppressed the lactate production induced by metformin
